Assay results from PubChem BioAssay AID248 (DTP/NCI, 2004).
Values joined by “and” are separate entries in the source; they are usually repeats but may differ in a detail not shown here. Equal entries are not always repeated. Inconclusive results and toxic doses are left out. No stated cut-off is given here; in the data, active means T/C of 150% or more; inactive means T/C below 125%.

Test system: L1210 leukemia ip in BDF1 mice, survival T/C
Test: NCI In Vivo Anticancer Drug Screen. Data for tumor model L1210 Leukemia (intraperitoneal) in B6D2F1 (BDF1) mice
Settings: endpoint: mean survival time, higher = longer survival
Outline: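 Read-out is survival time, reported as the treated-group measurement over the vehicle-control measurement.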

[1] = dose: 400.0 mg/kg/injection, schedule: Q04DX002 (ip), vehicle: saline with Tween-80
[2] = dose: 100.0 mg/kg/injection, schedule: Q04DX003 (ip), vehicle: Klucel (hydroxypropylcellulose) (HPC)
[3] = dose: 200.0 mg/kg/injection, schedule: Q04DX003 (ip), vehicle: Klucel (hydroxypropylcellulose) (HPC)
[4] = dose: 400.0 mg/kg/injection, schedule: Q04DX003 (ip), vehicle: Klucel (hydroxypropylcellulose) (HPC)
[5] = dose: 100.0 mg/kg/injection, schedule: Q01DX009 (ip), vehicle: Klucel (hydroxypropylcellulose) (HPC)
[6] = dose: 100.0 mg/kg/injection, schedule: Q04DX003 (ip), vehicle: saline with Tween-80
[7] = dose: 200.0 mg/kg/injection, schedule: Q04DX003 (ip), vehicle: saline with Tween-80
[8] = dose: 6.25 mg/kg/injection, schedule: Q01DX009 (ip), vehicle: Klucel (hydroxypropylcellulose) (HPC)
[9] = dose: 400.0 mg/kg/injection, schedule: Q04DX003 (ip), vehicle: saline with Tween-80
[10] = dose: 200.0 mg/kg/injection, schedule: Q01DX009 (ip), vehicle: Klucel (hydroxypropylcellulose) (HPC)
[11] = dose: 400.0 mg/kg/injection, schedule: Q01DX009 (ip), vehicle: Klucel (hydroxypropylcellulose) (HPC)

Measured: T/C

O=C(O)CSc1cc(Cl)c(Cl)cc1Cl
inactive: dose: 87.5 mg/kg/injection, schedule: Q04DX003 (ip), vehicle: other 100 % of control | dose: 175.0 mg/kg/injection, schedule: Q04DX003 (ip), vehicle: other 110 % of control

Cc1cccc(P(=O)(c2ccccc2)c2ccccc2)c1 (tested in a mixture with another compound)
inactive: dose: 100.0 mg/kg/injection, schedule: Q04DX002 (ip), vehicle: saline with Tween-80 104 % of control | dose: 200.0 mg/kg/injection, schedule: Q04DX002 (ip), vehicle: saline with Tween-80 96 % of control | [1] 88 % of control

CC1CN1CCC(=O)Nc1ccc(Cl)c(Cl)c1 (centres undefined)
inactive: dose: 50.0 mg/kg/injection, schedule: Q04DX003 (ip), vehicle: Klucel (hydroxypropylcellulose) (HPC) 97 % of control | [2] 105 % of control | [3] 100 % of control | [4] 106 % of control

O=[N+]([O-])c1cc(F)ccc1O
inactive: [5] 94 % of control | [2] 101 % of control | [6] 97 % of control | [7] 106 % of control

CC(Cc1ccccc1)N1C(=O)C=CC1=O (centres undefined)
inactive: dose: 3.12 mg/kg/injection, schedule: Q01DX009 (ip), vehicle: Klucel (hydroxypropylcellulose) (HPC) 92 % of control | [8] 101 % of control | dose: 12.5 mg/kg/injection, schedule: Q01DX009 (ip), vehicle: Klucel (hydroxypropylcellulose) (HPC) 93 % of control and 90 % of control

CNC(=O)Nc1c(O)nc(N)[nH]c1=O
inactive: dose: 37.5 mg/kg/injection, schedule: Q01DX001 (ip), vehicle: saline 97 % of control | dose: 75.0 mg/kg/injection, schedule: Q01DX001 (ip), vehicle: saline 103 % of control | dose: 150.0 mg/kg/injection, schedule: Q01DX001 (ip), vehicle: saline 105 % of control

CC(=O)OC1C(COS(=O)(=O)c2ccc(C)cc2)OCOC(COS(=O)(=O)c2ccc(C)cc2)C1OC(C)=O (centres undefined)
inactive: dose: 100.0 mg/kg/injection, schedule: Q01DX001 (ip), vehicle: Klucel (hydroxypropylcellulose) (HPC) 100 % of control | dose: 200.0 mg/kg/injection, schedule: Q01DX001 (ip), vehicle: Klucel (hydroxypropylcellulose) (HPC) 93 % of control | dose: 400.0 mg/kg/injection, schedule: Q01DX001 (ip), vehicle: Klucel (hydroxypropylcellulose) (HPC) 90 % of control

COc1ccc(CN2CCN(Cc3ccc(OC)c(OC)c3)C2c2ccc(OC)c(OC)c2)cc1OC
inactive: dose: 100.0 mg/kg/injection, schedule: Q01DX009 (ip), vehicle: saline with Tween-80 94 % of control | [6] 102 % of control | dose: 200.0 mg/kg/injection, schedule: Q01DX009 (ip), vehicle: saline with Tween-80 104 % of control | [7] 93 % of control | dose: 400.0 mg/kg/injection, schedule: Q01DX009 (ip), vehicle: saline with Tween-80 108 % of control | [9] 91 % of control

Cc1ccc(Cl)cc1NC(=O)c1ccccc1C(=O)O
inactive: [5] 102 % of control | [2] 102 % of control | [10] 97 % of control | [3] 101 % of control | [11] 96 % of control | [4] 102 % of control

CCOC(=O)c1ccc(OCCOc2ccc(C(C)(C)CC)cc2)cc1
inactive: [6] 102 % of control | [7] 112 % of control | [9] 108 % of control

O=C(COC(=O)c1ccccc1Br)c1ccc(-c2ccccc2)cc1
inactive: dose: 100.0 mg/kg/injection, schedule: Q01DX001 (ip), vehicle: saline 94 % of control | dose: 200.0 mg/kg/injection, schedule: Q01DX001 (ip), vehicle: saline 100 % of control | dose: 400.0 mg/kg/injection, schedule: Q01DX001 (ip), vehicle: saline 91 % of control

CCCCCCCC(=O)N(C(C)C)C(C)C
inactive: dose: 100.0 mg/kg/injection, schedule: Q01DX001 (ip), vehicle: carboxymethylcellulose (CMC) 108 % of control | dose: 100.0 mg/kg/injection, schedule: Q01DX009 (ip), vehicle: carboxymethylcellulose (CMC) 101 % of control and 103 % of control | dose: 100.0 mg/kg/injection, schedule: Q04DX002 (ip), vehicle: carboxymethylcellulose (CMC) 100 % of control | dose: 100.0 mg/kg/injection, schedule: Q04DX003 (ip), vehicle: carboxymethylcellulose (CMC) 100 % of control | dose: 200.0 mg/kg/injection, schedule: Q01DX001 (ip), vehicle: carboxymethylcellulose (CMC) 98 % of control | dose: 200.0 mg/kg/injection, schedule: Q01DX009 (ip), vehicle: carboxymethylcellulose (CMC) 93 % of control and 109 % of control | dose: 200.0 mg/kg/injection, schedule: Q04DX002 (ip), vehicle: carboxymethylcellulose (CMC) 89 % of control | dose: 200.0 mg/kg/injection, schedule: Q04DX003 (ip), vehicle: carboxymethylcellulose (CMC) 102 % of control | dose: 400.0 mg/kg/injection, schedule: Q01DX001 (ip), vehicle: carboxymethylcellulose (CMC) 96 % of control | dose: 400.0 mg/kg/injection, schedule: Q01DX009 (ip), vehicle: carboxymethylcellulose (CMC) 103 % of control and 111 % of control | dose: 400.0 mg/kg/injection, schedule: Q04DX002 (ip), vehicle: carboxymethylcellulose (CMC) 96 % of control | dose: 400.0 mg/kg/injection, schedule: Q04DX003 (ip), vehicle: carboxymethylcellulose (CMC) 105 % of control

O=C(/C=C/C=[N+](/[O-])O)c1cncc(F)c1
inactive: dose: 100.0 mg/kg/injection, schedule: Q04DX002 (ip), vehicle: saline 93 % of control | dose: 200.0 mg/kg/injection, schedule: Q04DX002 (ip), vehicle: saline 101 % of control | dose: 400.0 mg/kg/injection, schedule: Q04DX002 (ip), vehicle: saline 93 % of control

C(=P(c1ccccc1)(c1ccccc1)c1ccccc1)[P+](c1ccccc1)(c1ccccc1)c1ccccc1.[Br][Cu][Br]
inactive: dose: 1.56 mg/kg/injection, schedule: Q01DX009 (ip), vehicle: Klucel (hydroxypropylcellulose) (HPC) 101 % of control | dose: 3.13 mg/kg/injection, schedule: Q01DX009 (ip), vehicle: Klucel (hydroxypropylcellulose) (HPC) 109 % of control | [8] 114 % of control

O=[N+]([O-])c1cc(S(=O)(=O)F)cc(Cl)c1O
inactive: [5] 97 % of control | [10] 89 % of control

CCOC(CN(Cc1ccc(OC)c(OCc2ccccc2)c1)S(=O)(=O)c1ccc(C)cc1)OCC
inactive: dose: 25.0 mg/kg/injection, schedule: Q01DX009 (ip), vehicle: water 102 % of control | dose: 50.0 mg/kg/injection, schedule: Q01DX009 (ip), vehicle: water 94 % of control | dose: 100.0 mg/kg/injection, schedule: Q01DX009 (ip), vehicle: water 97 % of control | dose: 200.0 mg/kg/injection, schedule: Q01DX009 (ip), vehicle: water 94 % of control | dose: 400.0 mg/kg/injection, schedule: Q01DX009 (ip), vehicle: water 96 % of control

O=P(c1ccc[nH]1)(c1ccc[nH]1)c1ccc[nH]1
inactive: dose: 100.0 mg/kg/injection, schedule: Q04DX002 (ip), vehicle: gum acacia 101 % of control | dose: 200.0 mg/kg/injection, schedule: Q04DX002 (ip), vehicle: gum acacia 93 % of control | dose: 400.0 mg/kg/injection, schedule: Q04DX002 (ip), vehicle: gum acacia 108 % of control

CCN(c1ccccc1P(c1ccccc1)c1ccccc1)c1ccccc1P(c1ccccc1)c1ccccc1
inactive: dose: 25.6 mg/kg/injection, schedule: Q04DX002 (ip), vehicle: saline with Tween-80 89 % of control | dose: 64.0 mg/kg/injection, schedule: Q04DX002 (ip), vehicle: saline with Tween-80 89 % of control | dose: 160.0 mg/kg/injection, schedule: Q04DX002 (ip), vehicle: saline with Tween-80 89 % of control | [1] 89 % of control

COc1ccc(C)cc1NC(=O)Nc1cccc(F)c1
inactive: [5] 106 % of control | [10] 111 % of control | [11] 106 % of control

CCCCCCCCC(=O)Nc1nc2nc[nH]c2c(=O)[nH]1
inactive: dose: 100.0 mg/kg/injection, schedule: Q01DX001 (ip), vehicle: other 94 % of control | [5] 94 % of control | dose: 200.0 mg/kg/injection, schedule: Q01DX001 (ip), vehicle: other 86 % of control | [10] 90 % of control | dose: 400.0 mg/kg/injection, schedule: Q01DX001 (ip), vehicle: other 86 % of control | [11] 90 % of control

O=C1C=CC(=O)N1c1ccccc1Cl (tested in a mixture with another compound)
inactive: dose: 100.0 mg/kg/injection, schedule: Q04DX003 (ip), vehicle: acetone 107 % of control | dose: 200.0 mg/kg/injection, schedule: Q04DX003 (ip), vehicle: acetone 100 % of control | dose: 400.0 mg/kg/injection, schedule: Q04DX003 (ip), vehicle: acetone 96 % of control
